# Measured values published in patent publication US20250320184A1 (SIRONAX LTD., priority 2022, published 2025).
# Molecular target: T1, SARM1 (50-724) (Homo sapiens, UniProt Q6SZW1)
# T1 sequence (Q6SZW1 50-724): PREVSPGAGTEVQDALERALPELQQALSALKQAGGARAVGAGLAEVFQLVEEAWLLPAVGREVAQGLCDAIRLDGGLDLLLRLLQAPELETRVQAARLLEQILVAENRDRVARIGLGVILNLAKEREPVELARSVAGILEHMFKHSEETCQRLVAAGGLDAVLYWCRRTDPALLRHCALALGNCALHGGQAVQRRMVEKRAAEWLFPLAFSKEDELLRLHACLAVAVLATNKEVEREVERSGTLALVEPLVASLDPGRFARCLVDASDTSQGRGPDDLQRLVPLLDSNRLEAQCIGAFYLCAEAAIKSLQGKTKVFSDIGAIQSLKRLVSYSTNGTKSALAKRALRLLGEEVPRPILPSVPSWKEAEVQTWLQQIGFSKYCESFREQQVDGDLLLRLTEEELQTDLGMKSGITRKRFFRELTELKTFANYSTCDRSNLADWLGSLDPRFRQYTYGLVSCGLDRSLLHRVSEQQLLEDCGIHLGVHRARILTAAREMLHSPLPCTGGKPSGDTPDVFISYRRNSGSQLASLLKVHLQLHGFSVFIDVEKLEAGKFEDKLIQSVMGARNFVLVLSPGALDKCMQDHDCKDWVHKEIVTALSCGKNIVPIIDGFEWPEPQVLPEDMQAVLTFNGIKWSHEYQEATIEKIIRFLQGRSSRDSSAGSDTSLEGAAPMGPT
# Assay: biochemical
# Description: An enzymatic assay was performed in a 384-well plate using Dulbecco's phosphate-buffered saline (PBS) as the reaction buffer. […] The reaction was initiated by adding a mixture of 200 μM nicotinamide mononucleotide (NMN) as activator and 100 μM NAD^+ as substrate. After 1 h of incubation at room temperature, the reaction was terminated with 10 times volume of 70% acetonitrile, then centrifuged at 3800 rpm for 10 min.
row,Compound,IC50 [µM]
1,"O=C1NCCc2ccc(NS(=O)(=O)N3CCCC4CCCCC43)cc21 (mixture of isomers) [Example 170, N-(1-oxo-1,2,3,4-tetrahydroisoquinolin-7-yl)octahydroquinoline-1(2H)-sulfonamide]",> 1
2,O=C1NCCc2ccc(NS(=O)(=O)N3CCCC4CCCC43)cc21 (mixture of isomers) [Example 171],0.1 to 0.5
3,"CC1CCC(C)N(S(=O)(=O)Nc2ccc3c(c2)C(=O)NCC3)C1 (mixture of isomers) [Example 172, 2,5-dimethyl-N-(1-oxo-1,2,3,4-tetrahydroisoquinolin-7-yl)piperidine-1-sulfonamide]",> 1
4,"Cc1n[nH]c(=O)c2cc(NC(CC(O)CCO)c3nc(Cl)c(Cl)s3)ccc12 (mixture of isomers) [Example 293, 7-((1-(4,5-dichlorothiazol-2-yl)-3,5-dihydroxypentyl)amino)-4-methylphthalazin-1(2H)-one]",0.1 to 0.5
5,"CCC1CCCCN1S(=O)(=O)Nc1ccc2c(c1)C(=O)NCC2 (racemic) [Compound 48, 2-ethyl-N-(1-oxo-1,2,3,4-tetrahydroisoquinolin-7-yl)piperidine-1-sulfonamide]",> 1
6,"COC(=O)C1Cc2ccc(NS(=O)(=O)c3cccc(Cl)c3Cl)cc2C(=O)N1 (racemic) [Compound 90, methyl 7-((2,3-dichlorophenyl)sulfonamido)-1-oxo-1,2,3,4-tetrahydroisoquinoline-3-carboxylate]",0.1 to 0.5
7,"CC(Nc1ccc2ccn(C)c(=O)c2c1)c1ncc(Cl)s1 (racemic) [Compound 182, 7-((1-(5-chlorothiazol-2-yl)ethyl)amino)-2-methylisoquinolin-1(2H)-one]",> 1
8,"CC(Nc1ccc2ccn(C)c(=O)c2c1)c1cncc(Cl)c1Cl (racemic) [Compound 184, 7-((1-(4,5-dichloropyridin-3-yl)ethyl)amino)-2-methylisoquinolin-1(2H)-one]",0.1 to 0.5
9,"CC(Nc1ccc2ccn(CC3CC3)c(=O)c2c1)c1cccc(Cl)c1Cl (racemic) [Compound 186, 2-(cyclopropylmethyl)-7-((1-(2,3-dichlorophenyl)ethyl)amino)isoquinolin-1(2H)-one]",0.1 to 0.5
10,"CC(Nc1ccc2cc[nH]c(=O)c2c1)c1nc(Cl)sc1Cl (racemic) [Compound 190, 7-((1-(2,5-dichlorothiazol-4-yl)ethyl)amino)isoquinolin-1(2H)-one]",0.1 to 0.5
11,"Cc1nc(C(C)Nc2ccc3cc[nH]c(=O)c3c2)c(Cl)n1C (racemic) [Compound 214, 7-((1-(5-chloro-1,2-dimethyl-1H-imidazol-4-yl)ethyl)amino)isoquinolin-1(2H)-one]",0.1 to 0.5
12,"CC(Nc1ccc2c(c1)NC(=O)CCC2)c1nc(Cl)c(Cl)s1 (racemic) [Compound 229, 8-[1-(4,5-dichlorothiazol-2-yl)ethylamino]-1,3,4,5-tetrahydro-1-benzazepin-2-one]",0.1 to 0.5
13,"CC(Nc1ccc2c(c1)NC(=O)CC2)c1nc(Cl)c(Cl)s1 (racemic) [Compound 230, 7-[1-(4,5-dichlorothiazol-2-yl)ethylamino]-3,4-dihydro-1H-quinolin-2-one]",0.1 to 0.5
14,"CC(Nc1ccc2cc[nH]c(=O)c2c1)c1nn2c(c1Cl)CCCC2 (racemic) [Compound 232, 7-((1-(3-chloro-4,5,6,7-tetrahydropyrazolo[1,5-a]pyridin-2-yl)ethyl)amino)isoquinolin-1(2H)-one]",0.1 to 0.5
15,"CC(Nc1ccc2cc[nH]c(=O)c2c1)c1nc(Cl)c(Cl)n1C (racemic) [Compound 233, 7-((1-(4,5-dichloro-1-methyl-1H-imidazol-2-yl)ethyl)amino)isoquinolin-1(2H)-one]",0.1 to 0.5
16,"CC(Nc1ccc2cc[nH]c(=O)c2c1)c1nc2c(s1)CCCC2 (racemic) [Compound 236, 7-((1-(4,5,6,7-tetrahydrobenzo[d]thiazol-2-yl)ethyl)amino)isoquinolin-1(2H)-one]",0.1 to 0.5
17,"CC(Nc1ccc2c(c1)c(C(=O)N(C)C)nn2C)c1c(Cl)ccc(F)c1Cl (racemic) [Compound 245, 5-((1-(2,6-dichloro-3-fluorophenyl)ethyl)amino)-N,N1-trimethyl-1H-indazole-3-carboxamide]",0.1 to 0.5
18,"CCn1nc(C(C)Nc2ccc3cc[nH]c(=O)c3c2)c(Cl)c1C (racemic) [Compound 247, 7-((1-(4-chloro-1-ethyl-5-methyl-1H-pyrazol-3-yl)ethyl)amino)isoquinolin-1(2H)-one]",< 0.1

# Continued, values first:
row,IC50 [µM],Compound
1,< 0.1,"CC(Nc1ccc2c(c1)C(=O)N(C(C)C(N)=O)C2(C)C)c1nc(Cl)c(Cl)s1 (mixture of isomers) [Compound 334, 2-(5-((1-(4,5-dichlorothiazol-2-yl)ethyl)amino)-1,1-dimethyl-3-oxoisoindolin-2-yl)propanamide]"
2,< 0.1,"Cc1c2ccc(NC(C)c3nc(Cl)c(Cl)s3)cc2nn1C1CC(O)C1 (mixture of isomers) [Compound 339, 3-(6-((1-(4,5-dichlorothiazol-2-yl)ethyl)amino)-3-methyl-2H-indazol-2-yl)cyclobutan-1-ol]"
3,< 0.1,"CC(Nc1cc(F)c2ncn(C3CC(O)C3)c(=O)c2c1)c1cncc(Cl)c1Cl (mixture of isomers) [Compound 348, 6-((1-(4,5-dichloropyridin-3-yl)ethyl)amino)-8-fluoro-3-(3-hydroxycyclobutyl)quinazolin-4(3H)-one]"
4,< 0.1,"O=S(=O)(Nc1ccc2c(c1)C(O)CCC2)c1cccc(Cl)c1Cl (racemic) [Compound 56, 2,3-dichloro-N-(8-hydroxy-5,6,7,8-tetrahydronaphthalen-2-yl)benzenesulfonamide]"
5,< 0.1,"CC(Nc1ccc2cc[nH]c(=O)c2c1)c1c(Cl)ccc(Cl)c1Cl (racemic) [Compound 185, 7-((1-(2,3,6-trichlorophenyl)ethyl)amino)isoquinolin-1(2H)-one]"
6,< 0.1,"CC(Nc1ccc2cc[nH]c(=O)c2c1)c1nc(Cl)c(Cl)s1 (racemic) [Compound 187, 7-((1-(4,5-dichlorothiazol-2-yl)ethyl)amino)isoquinolin-1(2H)-one]"
7,< 0.1,"CC(C(N)=O)c1ccc(NS(=O)(=O)c2cccc(Cl)c2Cl)cc1 (racemic) [Compound 196, 2-(4-((2,3-dichlorophenyl)sulfonamido)phenyl)propanamide]"
8,< 0.1,"Cc1nc(C(C)Nc2ccc3cc[nH]c(=O)c3c2)sc1Cl (racemic) [Compound 207, 7-((1-(5-chloro-4-methylthiazol-2-yl)ethyl)amino)isoquinolin-1(2H)-one]"
9,< 0.1,"CC(Nc1ccc2c(c1)NC(=O)C2(C)C)c1c(Cl)ccc(F)c1Cl (racemic) [Compound 215, 6-[1-(2,6-dichloro-3-fluoro-phenyl)ethylamino]-3,3-dimethyl-indolin-2-one]"
10,< 0.1,"Cc1nc(C(C)Nc2ccc3nc[nH]c(=O)c3c2)sc1Cl (racemic) [Compound 216, 6-((1-(5-chloro-4-methylthiazol-2-yl)ethyl)amino)quinazolin-4(3H)-one]"
11,< 0.1,"CC(Nc1ccc2ccc(=O)[nH]c2c1)c1nc(Cl)c(Cl)s1 (racemic) [Compound 231, 7-[1-(4,5-dichlorothiazol-2-yl)ethylamino]-1H-quinolin-2-one]"
12,< 0.1,"CNC(=O)c1nn(C)c2ccc(NC(C)c3c(Cl)ccc(F)c3Cl)cc12 (racemic) [Compound 246, 5-((1-(2,6-dichloro-3-fluorophenyl)ethyl)amino)-N,1-dimethyl-1H-indazole-3-carboxamide]"
